Experiment in all cases: NCI anticancer screen, dose series, 48 h
Assay [1] relates to NCI-H522 lung.
Assay [2] relates to SK-OV-3 ovarian.
In assay [3] the test system is MALME-3M melanoma.
Assay [4] concerns HT29 colon.
Assay [5] has as its system SF-268 CNS.
Assay [6] has as its system NCI-H460 lung.
Assay [7] relates to TK-10 renal.
For assay [8], the system named is CCRF-CEM leukemia.
The subject of assay [9] is SNB-19 CNS.
Assay [10] has as its system LOX IMVI melanoma.

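Grown in 96-well plates, cells were treated for 48 hours with each compound at five concentrations. Insufficient inhibition: endpoint recorded as highest concentration tested. At the GI50, growth is halved. TGI denotes the concentration required for complete inhibition of growth.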

For `CN(C)CCNc1cc(-c2ccccc2)nc2ccccc12`, the GI50 in assay [1] is 8.11 µM; in assay [2], 9.24 µM; in assay [3], 12.6 µM; in assay [4], 4.01 µM; in [5], 4.98 µM; in assay [6] it was 3.5 µM. Besides, the GI50 in [7] was 6.94 µM; in [8], 4.43 µM; in assay [9], 14.6 µM; in assay [10], 3.6 µM. Further, the TGI was determined as 27.8 µM in [1]; 39 µM in [2]; 27.7 µM in [3]; 16.7 µM in assay [4]; 22.7 µM in [5]; 12.8 µM in [6]. In addition, the TGI worked out at 38.8 µM in assay [7], 37.3 µM in [8], 49.7 µM in assay [9] and 14.4 µM in assay [10].

For the origin of these results see PubChem BioAssay (NCI).
